Data: PubChem BioAssay AID330 (DTP/NCI, 2004)
“And” between values parts separate entries of the source, which are not always exact repeats. Identical values can stand only once. Inconclusive results and toxic doses are left out. Rule for the calls: active = survival T/C of 150% or more; inactive = T/C below 125% in these data. Peptide text beside a SMILES is read from it. * marks the point of attachment. Cbz = O=C(OCc1ccccc1)*

Test system: P388 leukemia ip, CD2F1 mice, survival T/C
Assay: NCI In Vivo Anticancer Drug Screen. Data for tumor model P388 Leukemia (intraperitoneal) in CD2F1 (CDF1) mice
Details: endpoint: median survival time, higher = longer survival
Method in brief: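 Mice carrying the transplanted tumor received test compound or vehicle. Survival was recorded in each group, and the value is the treated-group measurement divided by that of the vehicle-treated control group.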

[1] = dose: 50.0 mg/kg/injection, schedule: Q01DX005 (ip), vehicle: Klucel (hydroxypropylcellulose) (HPC)
[2] = dose: 100.0 mg/kg/injection, schedule: Q01DX005 (ip), vehicle: Klucel (hydroxypropylcellulose) (HPC)
[3] = dose: 200.0 mg/kg/injection, schedule: Q01DX005 (ip), vehicle: Klucel (hydroxypropylcellulose) (HPC)
[4] = dose: 25.0 mg/kg/injection, schedule: Q01DX009 (ip), vehicle: saline with Tween-80
[5] = dose: 50.0 mg/kg/injection, schedule: Q01DX009 (ip), vehicle: saline with Tween-80
[6] = dose: 100.0 mg/kg/injection, schedule: Q01DX001 (ip), vehicle: saline
[7] = dose: 200.0 mg/kg/injection, schedule: Q01DX001 (ip), vehicle: saline
[8] = dose: 400.0 mg/kg/injection, schedule: Q01DX001 (ip), vehicle: saline
[9] = dose: 100.0 mg/kg/injection, schedule: Q01DX009 (ip), vehicle: saline with Tween-80
[10] = dose: 200.0 mg/kg/injection, schedule: Q01DX009 (ip), vehicle: saline with Tween-80
[11] = dose: 12.5 mg/kg/injection, schedule: Q01DX005 (ip), vehicle: Klucel (hydroxypropylcellulose) (HPC)
[12] = dose: 25.0 mg/kg/injection, schedule: Q01DX005 (ip), vehicle: Klucel (hydroxypropylcellulose) (HPC)
[13] = dose: 50.0 mg/kg/injection, schedule: Q01DX009 (ip), vehicle: saline
[14] = dose: 50.0 mg/kg/injection, schedule: Q01DX005 (ip), vehicle: saline with Tween-80
[15] = dose: 200.0 mg/kg/injection, schedule: Q01DX005 (ip), vehicle: saline with Tween-80
[16] = dose: 100.0 mg/kg/injection, schedule: Q01DX005 (ip), vehicle: saline with Tween-80

Measured: T/C

c1ccc(-c2[nH]nc3nccnc23)cc1
inactive: [1] 99 % of control | [2] 98 % of control | [3] 98 % of control

O=C1OC2C(I)C3CC1C2C3 (stereo unspecified)
inactive: [4] 100 % of control | dose: 25.0 mg/kg/injection, schedule: Q04DX003 (ip), vehicle: saline with Tween-80 104 % of control | [5] 110 % of control | dose: 50.0 mg/kg/injection, schedule: Q04DX003 (ip), vehicle: saline with Tween-80 104 % of control

C=C1CC2(CC3C4CC3CC2C4)OC1=O (stereo unspecified)
inactive: [6] 98 % of control | [7] 99 % of control | [8] 100 % of control

[Cl][Cu][Cl]
inactive: dose: 3.13 mg/kg/injection, schedule: Q04DX003 (ip), vehicle: saline 90 % of control | dose: 6.25 mg/kg/injection, schedule: Q04DX003 (ip), vehicle: saline 104 % of control

CC(C)(C)OC(=O)NC(CO)C(=O)O (stereo unspecified)
inactive: [5] 96 % of control | [9] 96 % of control | [10] 99 % of control

CC(=O)C1(CCC(C)(S(=O)(=O)c2ccccc2)S(=O)(=O)c2ccccc2)CCCCC1=O (stereo unspecified)
inactive: dose: 100.0 mg/kg/injection, schedule: Q01DX001 (ip), vehicle: Klucel (hydroxypropylcellulose) (HPC) 99 % of control | dose: 200.0 mg/kg/injection, schedule: Q01DX001 (ip), vehicle: Klucel (hydroxypropylcellulose) (HPC) 100 % of control | dose: 400.0 mg/kg/injection, schedule: Q01DX001 (ip), vehicle: Klucel (hydroxypropylcellulose) (HPC) 106 % of control

NC(Cc1ccc([N+](=O)[O-])cc1)C(=O)O (stereo unspecified)
inactive: [6] 104 % of control | dose: 100.0 mg/kg/injection, schedule: Q04DX003 (ip), vehicle: saline with Tween-80 104 % of control | [7] 104 % of control | dose: 200.0 mg/kg/injection, schedule: Q04DX003 (ip), vehicle: saline with Tween-80 100 % of control | [8] 109 % of control | dose: 400.0 mg/kg/injection, schedule: Q04DX003 (ip), vehicle: saline with Tween-80 100 % of control

CSC(=S)N/N=C/c1cccn1C
inactive: [5] 100 % of control | [9] 91 % of control | [10] 115 % of control

N#CC(NCc1ccccc1)c1ccccc1 (stereo unspecified)
inactive: dose: 60.0 mg/kg/injection, schedule: Q01DX005 (ip), vehicle: saline with Tween-80 99 % of control | dose: 120.0 mg/kg/injection, schedule: Q01DX005 (ip), vehicle: saline with Tween-80 100 % of control

c1ccc2c(c1)cnc1ccccc12
inactive: [1] 97 % of control | [2] 104 % of control | [3] 104 % of control

CCCSc1nc2ccc(N=Cc3ccccc3O)cc2s1
inactive: dose: 50.0 mg/kg/injection, schedule: Q01DX009 (ip), vehicle: Klucel (hydroxypropylcellulose) (HPC) 97 % of control | dose: 100.0 mg/kg/injection, schedule: Q01DX009 (ip), vehicle: Klucel (hydroxypropylcellulose) (HPC) 90 % of control | dose: 200.0 mg/kg/injection, schedule: Q01DX009 (ip), vehicle: Klucel (hydroxypropylcellulose) (HPC) 90 % of control

ClC1=C(Cl)C(Cl)=C(Cl)C1=C/C=C/c1ccccc1
inactive: [4] 99 % of control | [5] 100 % of control | [9] 91 % of control

CCCCCCCN(CCCCCCC)C(=N)c1ccnc2ccccc12
inactive: dose: 6.25 mg/kg/injection, schedule: Q01DX005 (ip), vehicle: Klucel (hydroxypropylcellulose) (HPC) 101 % of control | [11] 99 % of control | [12] 100 % of control

CCNc1nc(NC(C)C)nc(-c2ccncc2)n1
inactive: [11] 108 % of control | [12] 96 % of control | [1] 101 % of control | [2] 108 % of control

COC(=O)c1ccc(C)[n+](C2OC(COC(=O)c3ccccc3)C(OC(=O)c3ccccc3)C2OC(=O)c2ccccc2)c1 (stereo unspecified)
inactive: dose: 50.0 mg/kg/injection, schedule: Q01DX005 (ip), vehicle: saline + Tween-80 + alcohol 100 % of control | dose: 100.0 mg/kg/injection, schedule: Q01DX005 (ip), vehicle: saline + Tween-80 + alcohol 100 % of control | dose: 200.0 mg/kg/injection, schedule: Q01DX005 (ip), vehicle: saline + Tween-80 + alcohol 98 % of control

C/C(=N\N)C1C(=O)c2ccccc2C1=O
inactive: dose: 6.25 mg/kg/injection, schedule: Q01DX009 (ip), vehicle: saline 100 % of control | dose: 12.5 mg/kg/injection, schedule: Q01DX009 (ip), vehicle: saline 105 % of control | dose: 25.0 mg/kg/injection, schedule: Q01DX009 (ip), vehicle: saline 101 % of control and 86 % of control | [13] 98 % of control

CC1(C)CCCC2(C)OC(=O)C=C12 (stereo unspecified)
inactive: dose: 3.12 mg/kg/injection, schedule: Q01DX005 (ip), vehicle: distilled water + Tween-80 105 % of control | dose: 6.25 mg/kg/injection, schedule: Q01DX005 (ip), vehicle: distilled water + Tween-80 104 % of control | dose: 12.5 mg/kg/injection, schedule: Q01DX005 (ip), vehicle: distilled water + Tween-80 94 % of control

O=C(O)C12C=CC(CC1)CC2
inactive: dose: 60.0 mg/kg/injection, schedule: Q01DX005 (ip), vehicle: Klucel (hydroxypropylcellulose) (HPC) 99 % of control | dose: 120.0 mg/kg/injection, schedule: Q01DX005 (ip), vehicle: Klucel (hydroxypropylcellulose) (HPC) 105 % of control | dose: 240.0 mg/kg/injection, schedule: Q01DX005 (ip), vehicle: Klucel (hydroxypropylcellulose) (HPC) 100 % of control

Nc1nnc2nc(C3(c4nc5nnc(N)n5[nH]c4=O)CCCC3=O)c(=O)[nH]n12
inactive: dose: 50.0 mg/kg/injection, schedule: Q01DX005 (ip), vehicle: saline 106 % of control | dose: 100.0 mg/kg/injection, schedule: Q01DX005 (ip), vehicle: saline 94 % of control | dose: 200.0 mg/kg/injection, schedule: Q01DX005 (ip), vehicle: saline 106 % of control

COc1c2c(cc3oc(=O)ccc13)OC(C)(C)C=C2
inactive: dose: 12.0 mg/kg/injection, schedule: Q01DX005 (ip), vehicle: saline with Tween-80 107 % of control | dose: 24.0 mg/kg/injection, schedule: Q01DX005 (ip), vehicle: saline with Tween-80 98 % of control | dose: 48.0 mg/kg/injection, schedule: Q01DX005 (ip), vehicle: saline with Tween-80 105 % of control | dose: 96.0 mg/kg/injection, schedule: Q01DX005 (ip), vehicle: saline with Tween-80 100 % of control

C/C=C/N1C(=O)C2C=CC1C(C(C)=O)C2 (stereo unspecified)
inactive: dose: 100.0 mg/kg/injection, schedule: Q04DX002 (ip), vehicle: saline 94 % of control | dose: 200.0 mg/kg/injection, schedule: Q04DX002 (ip), vehicle: saline 98 % of control | dose: 400.0 mg/kg/injection, schedule: Q04DX002 (ip), vehicle: saline 96 % of control

CCOC(=O)NC(C)(C)CN(C(=O)OCC)C(C)(C)CO
inactive: dose: 50.0 mg/kg/injection, schedule: Q04DX003 (ip), vehicle: saline 100 % of control | dose: 100.0 mg/kg/injection, schedule: Q04DX003 (ip), vehicle: saline 109 % of control | dose: 200.0 mg/kg/injection, schedule: Q04DX003 (ip), vehicle: saline 109 % of control

O=c1c2ccccc2nc2n1OCC2
inactive: [13] 103 % of control | dose: 100.0 mg/kg/injection, schedule: Q01DX009 (ip), vehicle: saline 111 % of control | dose: 200.0 mg/kg/injection, schedule: Q01DX009 (ip), vehicle: saline 111 % of control

COCCN1CC(=O)N2Cc3ccccc3CN2C(=O)C1
inactive: dose: 12.5 mg/kg/injection, schedule: Q01DX005 (ip), vehicle: saline with Tween-80 107 % of control | dose: 25.0 mg/kg/injection, schedule: Q01DX005 (ip), vehicle: saline with Tween-80 105 % of control | [14] 100 % of control and 101 % of control | [15] 101 % of control

OCNC(=S)c1ccccc1
inactive: [14] 105 % of control | [16] 105 % of control

O=C1CCSC(=S)N1c1ccc(F)c(F)c1
inactive: dose: 50.0 mg/kg/injection, schedule: Q01DX009 (ip), vehicle: suspension in saline 107 % of control | dose: 100.0 mg/kg/injection, schedule: Q01DX009 (ip), vehicle: suspension in saline 92 % of control | dose: 200.0 mg/kg/injection, schedule: Q01DX009 (ip), vehicle: suspension in saline 92 % of control

CCC(C)C(NC(=O)C(Cc1ccc(O)cc1)NC(=O)OCc1ccccc1)C(=O)OC (stereo not drawn) (Cbz-Tyr-Ile-OMe; configuration not given here)
inactive: [14] 106 % of control | [16] 92 % of control | [15] 97 % of control
